Key:
KRAS^WT = target: T1, KRAS^WT (Homo sapiens, UniProt P01116); test: Biochemical assay: KRAS^WT activation by SOS1CAT (HTRF, fluorescent GTP loading); conditions: 180 min pre-incubation with KRAS before addition of SOS1
T1 construct: The proteins KRASWT (aa 1–169, wild type), SOS1CAT (aa 564–); made in house
Experimental: One of the most synthetically accessible compounds, 1,6‐naphthyridin‐5(6H)‐one (1), was prepared (Table 1; Scheme S1). Structurally close to 1, isoquinolin‐1(2H)‐one 2 derivatives were also considered for the exploration of structure‐activity relationships (SAR). To measure the proportion of inhibitor reacting with Cys12 of the KRAS^G12C mutant, the bound/unbound protein ratio was quantified by mass spectrometry (MS). Then, the inhibition potency of these compounds towards KRAS^G12C was evaluated in biochemical assays measuring the activation of GDP‐bound KRAS^G12C or KRAS^WT by SOS1.19 […]
3.3 Biochemical activity assays
Measurement of (i) KRASG12C activation by SOS1CAT and (ii) wild-type KRAS activation by SOS1CAT was performed following the previously described protocol, [19] with a pre-incubation time of the test compound with KRAS proteins extended to 180 min before addi tion of SOS1.
This assay quantifies SOS1 CAT mediated loading of KRAS G12C–GDP with a fluorescent GTP analogue. Detection of successful loading was achieved by measuring resonance energy transfer from anti-GST-terbium (FRET donor) bound to GST -KRASG12C to the loaded fluorescent GTP analogue (FRET acceptor). The fluorescent GTP analogue EDA –GTP–DY-647P1 [2'/3'-O-(2-aminoethyl-carbamoyl)guanosine-5'-triphosphate labelled with DY-647P1 (Dyomics GmbH, Germany)] was synthesized by Jena Bioscience (Germany) a nd supplied as a 1 mM aqueous solution. A KRASG12C working solution was prepared in assay buffer [10 mM HEPES pH 7.4 (AppliChem), 150 mM NaCl (Sigma), 5 mM MgCl2 (Sigma), 1 mM DTT (Thermo Fisher), 0.05% BSA Fraction V pH 7.0 (ICN Biomedicals), 0.0025% (v/v) Igepal (Sigma)] containing 100 nM GST-KRASG12C and 2 nM anti-GST-terbium (Cisbio, France). A SOS1 CAT working solution was prepared in an assay buffer containing 20 nM SOS1CAT and 200 nM EDA–GTP–DY-647P1. An inhibitor control solution was prepared in an assay buffer containing 200 nM EDA–GTP–DY-647P1 without […]
(§1) SOS1CAT. All steps of the assay were performed at 20 °C. A volume of 2.5 µL of the KRASG12C working solution was added to all wells of the test plate using a Multidrop dispenser (Thermo LabSystems). After 180 min, 2.5 µL of the SOS1CAT working solution was added to all wells, except for the inhibitor control solution wells. After 30 min incubation, HTRF was measured.
In the KRASWT activation by SOS1cat assay, human SOS1CAT mediated loading of GST-KRASWT– GDP was quantified with a fluorescent GTP analogue. The assay was performed as described above for the KRASG12C activation. […]
SYNAPT G2-S quadrupole time-of-flight mass spectrometer connected to a Waters nanoAcquity UPLC system. Samples were loaded on a 2.1 x 5 mm mass prep C4 guard column (Waters) and desalted with a short grad ient (3 min) of increasing concentrations of acetonitrile at a flow rate of 100 µL/min. Spectra were analyzed by using MassLynx v4.1 software and deconvoluted with the MaxEnt1 algorithm. Percent of conversion was determined by the ratio of signal intensiti es of apo-KRAS and KRAS + inhibitor.

active RAS = test: Cellular assay for RAS activation (G-LISA); type: cell-based; conditions: 24 h treatment; read-out: Cellular IC50 (inhibition of active RAS formation)
Experimental: as §1
In the KRASWT activation by SOS1cat assay, human SOS1CAT mediated loading of GST-KRASWT– GDP was quantified with a fluorescent GTP analogue. The assay was performed as described above for the KRASG12C activation. GST-KRASG12C was replaced by GST-KRASWT, used at a final […]
3.4 Covalent binding assay by mass spectrometry
The percentage of covalent adduct formation at KRAS G12C was determined by intact mass determination. To this end, 25 µM recombinant KRAS mutant (G12C , C51S, C80L, C118S) was incubated with 25 µM compound (1% v/v DMSO final concentration) in 50 mM Tris, pH 8.0, 50 mM NaCl at room temperature for 2 h. Reaction mixture (20 µL) was acidified by addi tion of 4% v/v TFA (4 µL). […] Spectra were analyzed by using MassLynx v4.1 software and deconvoluted with the MaxEnt1 algorithm. Percent conversion was determined by the ratio of signal intensities of […] and KRASG12C + inhibitor. […]
Using the G-LISA Kit (Cytoskeleton BK131, RAS Activation Assay), 50000 cells are seeded in a 96 well plate for 72 h at 37 °C (10% FBS, DMEM/Ham's F-12, 2 mM L-Glutamine). […] Finally, the content of active R AS is measured by detecting the absorbance at 490 nm. […]
The percentage of covalent adduct formation at KRASG12C was determined for compounds 1, 2 and 13 by intact mass determination. […]
Liquid chromatography-mass spectrometry (LC-MS) analysis was performed using a Waters SYNAPT G2-S quadrupole time-of-flight mass spectrometer connected to a Waters nanoAcquity UPLC system. […] Spectra were analyzed by using MassLynx v4.1 software and deconvoluted with the MaxEnt1 algorithm. Percent of conversion was determined by the ratio of signal intensiti es of apo-KRAS and KRAS + inhibitor.

T1 sequence (P01116 1-169 isoform P01116-2): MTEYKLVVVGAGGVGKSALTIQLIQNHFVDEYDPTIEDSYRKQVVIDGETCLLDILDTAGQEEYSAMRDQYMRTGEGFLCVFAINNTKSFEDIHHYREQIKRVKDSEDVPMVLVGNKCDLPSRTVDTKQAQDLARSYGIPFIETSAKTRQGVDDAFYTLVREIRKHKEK

IC50 (KRAS^WT) [µM] | IC50 (active RAS) [µM] | SMILES
> 20 | > 30 | C=CC(=O)N1CCC(c2cc3ncc(-c4c(O)cccc4F)cc3c(=O)[nH]2)C1 (stereo not drawn) [Compound 1, 3-(2-Fluoro-6-hydroxyphenyl)-7-[1-(prop-2-enoyl)pyrrolidin-3-yl]-1,6-naphthyridin-5(6H)-one]
> 20 | > 30 | C=CC(=O)N1CCC(c2cc3ccc(-c4c(O)cccc4F)cc3c(=O)[nH]2)C1 (stereo not drawn) [Compound 2, 7-(2-Fluoro-6-hydroxyphenyl)-3-[1-(prop-2-enoyl)pyrrolidin-3-yl]isoquinolin-1(2H)-one]
> 20 | 22 | C=CC(=O)N1CCC(c2cc3cnc(-c4c(O)cccc4F)cc3c(=O)[nH]2)C1 (stereo not drawn) [Compound 13, 7-(2-Fluoro-6-hydroxyphenyl)-3-[1-(prop-2-enoyl)pyrrolidin-3-yl]-2,6-naphthyridin-1(2H)-one]
